From patent US7858776B2, “Lactams and uses thereof” (AstraZeneca AB, priority 2002, dated 2010)
Structures can show the parent of a compound that is named as a salt.

Work on `C[C@H](NCCc1ccccc1)C(=O)N[C@@H]1C(=O)Nc2ccccc2S[C@@H]1c1ccccc1` (as salt: hydrochloride) [Example 98, N^1-[(2R,3R)-4-Oxo-2-phenyl-2,3,4,5-tetrahydro-1,5-benzothiazepin-3-yl]-N^2-(2-Phenylethyl)-L-alaninamide] yielded a melting point of 184 to 195 °C. Work on `C[C@H](NC(=O)Cc1cc(F)cc(F)c1)C(=O)N[C@@H]1C(=O)NCCS[C@@H]1c1ccccc1` [Example 7, N^2-[(3,5-Difluorophenyl)acetyl]-N^1-[(6R,7R)-5-oxo-7-phenyl-1,4-thiazepan-6-yl]-L-alaninamide] yielded a melting point of 128 to 133 °C. In the case of `CC(C)C[C@H](O)C(=O)N[C@@H](C)C(=O)N[C@@H]1C(=O)NCCS[C@@H]1c1ccccc1` [Example 93, N^2-[(2S)-2-Hydroxy-4-methyl-1-oxopentyl]-N^1-[(6R,7R)-5-oxo-7-phenyl-1,4-thiazepan-6-yl]-L-alaninamide], the melting point is reported as 93 to 99 °C. Molecule `C[C@H](NC(=O)Cc1ccccc1)C(=O)N[C@@H]1C(=O)Nc2ccccc2S[C@@H]1c1ccccc1` [Example 97, N^1-[(2R,3R)-4-Oxo-2-phenyl-2,3,4,5-tetrahydro-1,5-benzothiazepin-3-yl]-N^2-(phenylacetyl)-L-alaninamide] has a melting point of 114 to 124 °C. For `C[C@H](NC(=O)Cc1cc(F)cc(F)c1)C(=O)N[C@@H]1C(=O)Nc2ccccc2S[C@@H]1c1cccs1` [Example 99, N^2-[(3,5-Difluorophenyl)acetyl]-N^1-[(2S,3R)-4-oxo-2-(2-thienyl)-2,3,4,5-tetrahydro-1,5-benzothiazepin-3-yl]-L-alaninamide], the melting point was 117 to 119 °C. In the case of `C[C@H](NC(=O)Cc1cc(F)cc(F)c1)C(=O)N[C@@H]1C(=O)Nc2ccccc2S[C@@H]1c1ccco1` [Example 101, N^2-[(3,5-Difluorophenyl)acetyl]-N^1-[(2S,3R)-2-(2-furyl)-4-oxo-2,3,4,5-tetrahydro-1,5-benzothiazepin-3-yl]-L-alaninamide], the melting point is reported as 125 to 130 °C. `C[C@H](NC(=O)Cc1cc(F)cc(F)c1)C(=O)N[C@@H]1C(=O)Nc2ccccc2S[C@H]1c1ccoc1` [Example 102, N^2-[(3,5-Difluorophenyl)acetyl]-N^1-[(2S,3R)-2-(3-furyl)-4-oxo-2,3,4,5-tetrahydro-1,5-benzothiazepin-3-yl]-L-alaninamide] showed a melting point of 115 to 120 °C. `C[C@H](NC(=O)Cc1cc(F)cc(F)c1)C(=O)N[C@@H]1C(=O)Nc2ccccc2S[C@@H]1c1cc(Br)cs1` [Example 104, N^1-[(2S,3R)-2-(4-Bromo-2-thienyl)-4-oxo-2,3,4,5-tetrahydro-1,5-benzothiazepin-3-yl]-N^2-[(3,5-difluorophenyl)acetyl]-L-alaninamide] gave a melting point of 145 to 155 °C. Work on `N[C@@H](Cc1ccccc1)C(=O)N(C(=O)Cc1cc(F)cc(F)c1)[C@@H]1C(=O)Nc2ccccc2S[C@@H]1c1ccccc1` [Example 105, N-[(3,5-Difluorophenyl)acetyl]-N-[(2R,3R)-4-oxo-2-phenyl-2,3,4,5-tetrahydro-1,5-benzothiazepin-3-yl]-L-phenylalaninamide] yielded a melting point of 115 to 120 °C. Work on `O=C(Cc1cc(F)cc(F)c1)NCC(=O)N[C@@H]1C(=O)Nc2ccccc2S[C@@H]1c1ccccc1` [Example 106, N^2-[(3,5-Difluorophenyl)acetyl]-N^1-[(2R,3R)-4-oxo-2-phenyl-2,3,4,5-tetrahydro-1,5-benzothiazepin-3-yl]glycinamide] yielded a melting point of 125 to 130 °C. `CC(C)[C@H](NC(=O)Cc1cc(F)cc(F)c1)C(=O)N[C@@H]1C(=O)Nc2ccccc2S[C@@H]1c1ccccc1` [Example 107, N^2-[(3,5-Difluorophenyl)acetyl]-N^1-[(2R,3R)-4-oxo-2-phenyl-2,3,4,5-tetrahydro-1,5-benzothiazepin-3-yl]-L-valinamide] showed a melting point of 110 to 115 °C. Molecule `CSCC[C@H](NC(=O)Cc1cc(F)cc(F)c1)C(=O)N[C@@H]1C(=O)Nc2ccccc2S[C@@H]1c1ccccc1` [Example 109, N^2-[(3,5-Difluorophenyl)acetyl]N^1-[(2R,3R)-4-oxo-2-phenyl-2,3,4,5-tetrahydro-1,5-benzothiazepin-3-yl]-L-methioninamide] has a melting point of 85 to 90 °C. With `O=C(Cc1cc(F)cc(F)c1)N[C@@H](Cc1cc2ccccc2[nH]1)C(=O)N[C@@H]1C(=O)Nc2ccccc2S[C@@H]1c1ccccc1` [Example 110, N^2-[(3,5-Difluorophenyl)acetyl]-3-(1H-indol-2-yl)-N^1-[(2R,3R)-4-oxo-2-phenyl-2,3,4,5-tetrahydro-1,5-benzothiazepin-3-yl]-L-alaninamide] the melting point was 85 to 90 °C. In the case of `C[C@H](NC(=O)Cc1ccccc1)C(=O)N[C@@H]1C(=O)Nc2ccccc2O[C@@H]1c1ccccc1` [Example 113, N^1-[(2R,3S)-4-Oxo-2-phenyl-2,3,4,5-tetrahydro-1,5-benzoxazepin-3-yl]-N^2-(phenylacetyl)-L-alaninamide], the melting point is reported as 122 to 136 °C. In the case of `C[C@H](NC(=O)Cc1ccccc1F)C(=O)N[C@@H]1C(=O)Nc2ccccc2O[C@@H]1c1ccccc1` [Example 114, N^2-[(2-Fluorophenyl)acetyl]-N^1-[(2R,3S)-4-oxo-2-phenyl-2,3,4,5-tetrahydro-1,5-benzoxazepin-3-yl]-L-alaninamide], the melting point is reported as 115 to 135 °C. Work on `C[C@H](NC(=O)Cc1cccc(F)c1)C(=O)N[C@@H]1C(=O)Nc2ccccc2O[C@@H]1c1ccccc1` [Example 115, N^2-[(3-Fluorophenyl)acetyl]-N^1-[(2R,3S)-4-oxo-2-phenyl-2,3,4,5-tetrahydro-1,5-benzoxazepin-3-yl]-L-alaninamide] yielded a melting point of 130 to 140 °C. `C[C@H](NC(=O)Cc1ccc(F)cc1)C(=O)N[C@@H]1C(=O)Nc2ccccc2O[C@@H]1c1ccccc1` [Example 116, N^2-[(4-Fluorophenyl)acetyl]-N^1-[(2R,3S)-4-oxo-2-phenyl-2,3,4,5-tetrahydro-1,5-benzoxazepin-3-yl]-L-alaninamide] gave a melting point of 130 to 140 °C.
